Literature values, collected in patent US20130310903A1, “Anti-Depression Light-Wave Device and Usage Thereof” (priority 2012, published 2013).
Where two headings read alike, the source gives them in different places.

Settings: 12-week administration; for CGI outcome Worse: share of patients

## Fc1ccc([C@@H]2CCNC[C@H]2COc2ccc3c(c2)OCO3)cc1 [Paxil, Paroxetine]
20 mg
  CGI outcome Minimally: 33%
  CGI outcome Much Improved: 18%
  CGI outcome No Change: 35%
  CGI outcome Very Much: 7%
  CGI outcome Worse: 7%
40 mg
  CGI outcome Minimally: 29%
  CGI outcome Much Improved: 22%
  CGI outcome No Change: 22%
  CGI outcome Very Much: 20%
  CGI outcome Worse: 7%
60 mg
  CGI outcome Minimally: 34%
  CGI outcome Much Improved: 24%
  CGI outcome No Change: 19%
  CGI outcome Very Much: 20%
  CGI outcome Worse: 3%
